Data from the supplement of paper PMC10307832.

Assays:
Assay in all cases: relative viability (nuclei count vs DMSO), 5 days (fraction); higher = more cells survive
FG-4592 + Lapatinib = compound: Cc1nc(C(=O)NCC(=O)O)c(O)c2ccc(Oc3ccccc3)cc12 [FG-4592] + CS(=O)(=O)CCNCc1ccc(-c2ccc3ncnc(Nc4ccc(OCc5cccc(F)c5)c(Cl)c4)c3c2)o1 [Lapatinib] (partner 2 µM)
In short: (§1)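 Medians of duplicate plates are given as relative viability. That measure is the nuclei count in treated wells divided by the count in vehicle wells. Counts were taken on 4× images of lung cancer cell lines in 1536-well plates, 5 days after pin-tool dosing the day after seeding with one drug alone or a fixed anchor-drug dose plus five library-drug doses (not always all listed) in √10 steps.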

FG-4592 + Alpelisib = compound: Cc1nc(C(=O)NCC(=O)O)c(O)c2ccc(Oc3ccccc3)cc12 [FG-4592] + Cc1nc(NC(=O)N2CCC[C@H]2C(N)=O)sc1-c1ccnc(C(C)(C)C(F)(F)F)c1 [Alpelisib] (partner 2 µM)
In short: as §1

IU1-47 + Lapatinib = compound: CC1=CC(=C(N1C2=CC=C(C=C2)Cl)C)C(=O)CN3CCCCC3 [IU1-47] + CS(=O)(=O)CCNCc1ccc(-c2ccc3ncnc(Nc4ccc(OCc5cccc(F)c5)c(Cl)c4)c3c2)o1 [Lapatinib] (partner 2 µM)
In short: as §1

IU1-47 + Pictilisib = compound: CC1=CC(=C(N1C2=CC=C(C=C2)Cl)C)C(=O)CN3CCCCC3 [IU1-47] + CS(=O)(=O)N1CCN(Cc2cc3nc(-c4cccc5[nH]ncc45)nc(N4CCOCC4)c3s2)CC1 [Pictilisib] (partner 1 µM)
In short: as §1

Cell Line	relative viability (FG-4592 + Lapatinib; first compound 0.08 µM)	relative viability (FG-4592 + Lapatinib; first compound 0.253 µM)	relative viability (FG-4592 + Lapatinib; first compound 0.8 µM)	relative viability (FG-4592 + Lapatinib; first compound 2.53 µM)	relative viability (FG-4592 + Lapatinib; first compound 8 µM)	relative viability (FG-4592 + Alpelisib; first compound 0.08 µM)	relative viability (FG-4592 + Alpelisib; first compound 0.253 µM)	relative viability (FG-4592 + Alpelisib; first compound 0.8 µM)	relative viability (FG-4592 + Alpelisib; first compound 2.53 µM)	relative viability (FG-4592 + Alpelisib; first compound 8 µM)	relative viability (IU1-47 + Lapatinib; first compound 0.08 µM)	relative viability (IU1-47 + Lapatinib; first compound 0.253 µM)	relative viability (IU1-47 + Lapatinib; first compound 0.8 µM)	relative viability (IU1-47 + Lapatinib; first compound 2.53 µM)	relative viability (IU1-47 + Lapatinib; first compound 8 µM)	relative viability (IU1-47 + Pictilisib; first compound 0.08 µM)	relative viability (IU1-47 + Pictilisib; first compound 0.253 µM)	relative viability (IU1-47 + Pictilisib; first compound 0.8 µM)	relative viability (IU1-47 + Pictilisib; first compound 8 µM)	relative viability (IU1-47 + Pictilisib; first compound 2.53 µM)
NCI-H647	1.13	1.01	1.23	1.08	1.04	1.24	1.07	1.17	1.24	0.796	1.02	1.22	1.37	1.22	0.49	0.467	0.52	0.453	0.359	–
SK-MES-1	0.513	0.489	0.42	0.489	0.397	0.953	0.892	0.85	0.853	0.773	0.5	0.503	0.541	0.465	0.45	0.402	0.396	0.351	0.371	0.398
NCI-H2170	0.263	0.244	0.242	0.277	0.256	0.823	0.801	0.794	0.826	0.581	0.286	0.297	0.289	0.301	0.263	0.309	0.308	0.287	0.331	0.305
NCI-H2085	0.633	0.747	0.607	0.723	0.824	0.911	0.889	0.967	1.04	0.935	0.7	0.77	0.941	0.681	0.685	0.445	0.426	0.422	0.447	0.47
SW 1573	1.05	1.12	1.11	1.11	1.22	0.781	0.733	0.852	0.857	0.616	1.08	1.06	0.894	0.966	1.16	0.524	0.563	0.391	0.471	0.553
NCI-H727	0.632	0.809	0.742	0.754	0.863	0.533	0.582	0.545	0.56	0.561	0.762	–	1.11	0.642	0.833	0.33	–	0.356	0.355	0.264
LOU-NH91	0.72	0.759	0.618	0.734	0.631	0.698	0.614	0.613	0.719	0.724	0.784	0.877	0.812	0.762	0.702	0.502	0.529	0.429	0.51	0.512
NCI-H3122	1.1	0.989	1.03	1.08	1.1	0.861	0.764	0.665	0.781	0.733	1.06	1.06	1.06	1.09	1.03	0.556	0.615	0.666	0.581	0.625
NCI-H460	0.923	0.768	1.05	0.94	1.1	0.549	0.46	0.571	0.517	0.444	1.2	1.14	0.997	0.655	0.7	0.385	0.284	0.381	0.345	0.359
NCI-H650	0.633	1.03	0.744	0.728	0.802	1.03	1.01	1.04	0.939	0.881	0.854	0.934	0.656	1.03	0.74	0.882	1	0.932	0.832	0.968
NCI-H661	0.446	0.462	0.578	0.473	0.403	0.386	0.581	0.626	0.835	0.727	0.562	0.546	0.51	0.338	0.552	0.376	0.406	0.414	0.363	0.349
NCI-H1793	0.592	0.468	–	0.646	0.62	0.772	0.678	–	0.719	0.557	0.525	0.594	0.648	–	0.566	0.284	0.293	0.363	0.262	–
NCI-H1734	0.947	0.886	0.915	0.973	1.02	0.645	0.685	0.681	0.686	0.731	1.05	1.15	1.12	–	1.02	0.463	0.442	0.464	0.427	–
LXF-289	0.93	0.881	0.937	0.946	0.945	0.974	0.963	1.06	1.05	1.09	0.935	0.921	0.877	0.911	0.819	0.8	0.754	0.772	0.688	0.822
H3255	0.275	0.235	0.271	0.257	0.26	0.634	0.664	0.67	0.791	0.81	0.242	0.242	0.256	0.238	0.246	0.542	0.431	0.488	0.522	0.537
201T	0.976	1.03	0.931	1.04	1.01	0.96	0.96	0.879	1.02	1.03	1.04	1	1.05	–	0.957	0.672	0.682	0.709	0.664	–
